Earlier results as cited in article PMC11956011, “An Amazing 30-Year Journey around the DABO Family: A Medicinal Chemistry Lesson on a Versatile Class of Non-nucleoside HIV-1 Reverse Transcriptase Inhibitors” (Journal of Medicinal Chemistry, 2025).
In brackets after ≈: the same amount, converted by molar mass. Like-named read-outs stand apart in the source and are kept apart here.

What was measured:
mock-infected cells = conditions: for CD50: Fig 4
HIV-1IIIB = conditions: for ED50: HIV-1 IIIB: Fig 4
N119 (Y181C mutant) = conditions: for ED50: HIV-1 119: Fig 4; for Fold-resistance HIV-1 119 (ED50): Fig 4, in parentheses; for EC50: Fig 9
HIV-1 NL4-3 wt = conditions: read-out: EC50: NL4-3 wt
[1] = test system: IRLL98 clinical isolate (K101Q, Y181C, G190A); conditions: Fig 9
Y181I HIV-1 RT = conditions: for Fold-resistance Y181I RT (ID50): Fig 10, in brackets
[2] = test system: Y188L HIV-1 mutant strain
[3] = test system: HIV-1 RT (WT, recombinant)
[4] = test system: K103N HIV-1 mutant strain; conditions: for Fold-resistance K103N (EC50): Fig 10, in brackets
A17 (Y181C+K103N) = conditions: Fig 9
[5] = test system: EFV^R (K103R + V179D + P225H mutant); conditions: Fig 9
HIV-1 = conditions: for SI: Fig 10
[6] = more water-soluble
malaria = test system: malaria; parameters: method as in PMID 31191911
[7] = test system: Y181C HIV-1 mutant strain; conditions: for Fold-resistance Y181C (EC50): Fig 10, in brackets
C8166 cells = test system: C8166 cells; parameters: method as in doi:10.1016/0223-5234(92)90009-P; conditions: Fig 2
Vero cells = test system: Vero cells; parameters: method as in doi:10.1016/0223-5234(92)90009-P; conditions: Fig 2
HBV = conditions: HBV-infected cells; read-out: HBV DNA IC50
[8] = test system: clinical isolates KM018, TC-2, and WAN; conditions: read-out: EC50 against clinical isolates KM018, TC-2, and WAN
L100I HIV-1 RT = conditions: for ID50: L100I: Fig 10; for Fold-resistance L100I RT (ID50): Fig 10, in brackets
[9] = rats
[10] = test system: colon carcinoma HT-29 cells
[11] = test system: E138K HIV-1 mutant strain
[12] = test system: non-small-cell lung cancer HOP-92 cells; parameters: method as in PMID 21849221; conditions: at 10 μM

CCc1c(Cc2cc(C)cc(C)c2)n2c(nc1=O)SCCOC2 [compound 25]
CD50 (mock-infected cells): > 100 µM
ED50: HIV-1 IIIB (HIV-1IIIB): 600 nM
ED50: HIV-1 119 (N119 (Y181C mutant)): 19000 nM
Fold-resistance HIV-1 119 (ED50) (N119 (Y181C mutant)): 32

COc1ccc(CCSc2nc(Cc3c(Cl)cccc3Cl)c(C)c(=O)[nH]2)cc1 [compound 77]
EC50 (HIV-1 NL4-3 wt; Fig 9): < 0.14 nM
EC50 [1]: 0.22 nM
ID50: Y181I (Y181I HIV-1 RT; Fig 9): 1500 nM
EC50 ([2]; Fig 9): 6900 nM
ID50: WT ([3]; Fig 9): 26 nM
CC50 (mock-infected cells; Fig 9): > 57000 nM
EC50 ([4]; Fig 9): 870 nM

COc1cccc(Sc2nc(Cc3cc(C)cc(C)c3)c(C)c(=O)[nH]2)c1 [compound 84]
EC50 (A17 (Y181C+K103N)): > 100000 nM
EC50 [5]: 100000 nM
CC50 (mock-infected cells; Fig 9): > 100000 nM
EC50 (N119 (Y181C mutant)): 2000 nM

CCc1c(CC2CCCCC2)nc(SCC(=O)c2ccc(OP(=O)(OC)OC)cc2)[nH]c1=O [compound 179]
Potency against WT HIV-1 with respect to 177 (HIV-1; more potent): 20 fold
Water solubility with respect to 177 [6]: 17 fold
Cytotoxicity with respect to 177 (mock-infected cells; more cytotoxic): 4.5 times

COc1ccc(CSc2nc(Cc3c(Cl)cccc3Cl)c(C)c(=O)[nH]2)cc1 [compound 76]
EC50 (HIV-1 NL4-3 wt; Fig 9): 7 nM
EC50 [1]: 47 nM
ID50: Y181I (Y181I HIV-1 RT; Fig 9): 150000 nM
EC50 ([2]; Fig 9): > 32000 nM
ID50: WT ([3]; Fig 9): 4 nM
CC50 (mock-infected cells; Fig 9): 32000 nM
EC50 ([4]; Fig 9): 4700 nM

Cc1cc(C)cc(Cc2nc(Sc3ccccc3)[nH]c(=O)c2C)c1 [compound 83]
EC50 (A17 (Y181C+K103N)): > 100000 nM
EC50 (HIV-1; read-out: EC50: HIV-1 wt, Fig 9): 1700 nM
EC50 [5]: 80000 nM
CC50 (mock-infected cells; Fig 9): > 100000 nM
EC50 (N119 (Y181C mutant)): 5000 nM

O=C(CCCCSc1nc(-c2ccc(-c3ccccc3)cc2)cc(=O)[nH]1)NO [compound 195]
outcome in in vivo malaria mouse model (malaria): failed

COc1ccncc1Sc1nc(Cc2c(Cl)cccc2Cl)c(C)c(=O)[nH]1 [compound 82]
EC50 (HIV-1 NL4-3 wt; Fig 9): 2720 nM
EC50 [1]: 8680 nM
EC50 ([7]; Fig 9): 6520 nM
ID50: Y181I (Y181I HIV-1 RT; Fig 9): > 400000 nM
EC50 ([2]; Fig 9): > 61300 nM
ID50: WT ([3]; Fig 9): 3500 nM
CC50 (mock-infected cells; Fig 9): > 61300 nM
EC50 ([4]; Fig 9): > 61300 nM

CCCCOc1nc(Cc2ccc(OC)cc2)cc(=O)[nH]1 [compound 5]
TD50 C8166 (C8166 cells): 100 µg/mL
TD50 Vero (Vero cells): 100 µg/mL

Cc1c(O)nc(Sc2ccc(Cl)cc2)nc1Cc1c(F)cccc1F [compound 81]
EC50 (HIV-1 NL4-3 wt; Fig 9): 100 nM
EC50 [1]: > 66100 nM
ID50: Y181I (Y181I HIV-1 RT; Fig 9): > 400000 nM
EC50 ([2]; Fig 9): > 66100 nM
ID50: WT ([3]; Fig 9): 22000 nM
CC50 (mock-infected cells; Fig 9): > 66100 nM
EC50 ([4]; Fig 9): 8010 nM

Cc1cc(C)cc(Cc2nc(Sc3cccnc3)[nH]c(=O)c2C)c1 [compound 85]
EC50 (A17 (Y181C+K103N)): > 55000 nM
EC50 [5]: 55000 nM
EC50 (N119 (Y181C mutant)): 8000 nM

O=c1[nH]c(SC2O[C@H](CO)[C@H](O)[C@@H](O)[C@@H]2O)nc(Cc2ccccc2)c1Cc1ccccc1 (some centres unmarked) [compound 185]
IC50 (HBV): 200 nM

O=c1[nH]c(SC2OC[C@H](O)[C@@H](O)[C@@H]2O)nc(Cc2ccccc2)c1Cc1ccccc1 (some centres unmarked) [compound 186]
IC50 (HBV): 200 nM

CCc1c(CC2CCCCC2)nc(SCC(=O)c2ccccc2)[nH]c1=O [compound 177]
EC50 (HIV-1; read-out: EC50 anti-HIV-1 activity, first report, C8166 cells): 0.012 nM
EC50 (HIV-1; read-out: EC50 vs WT HIV-1): 200 nM
EC50 [8]: 8.74 to 41.8 nM
EC50 (HIV-1IIIB; read-out: EC50 anti-HIV-1 activity, further studies): 2.4 nM

CCc1c(Cc2c(F)cccc2Cl)nc(SCC(=O)c2ccc(F)cc2)[nH]c1=O [compound 103]
EC50 (HIV-1 NL4-3 wt; Fig 10): 5 nM
SI (HIV-1): > 11400
EC50 ([7]; Fig 10): 1930 nM
Fold-resistance Y181C (EC50) [7]: 386
ID50: Y181I (Y181I HIV-1 RT; Fig 10): 380 nM
Fold-resistance Y181I RT (ID50) (Y181I HIV-1 RT): 12
ID50: L100I (L100I HIV-1 RT): 5600 nM
Fold-resistance L100I RT (ID50) (L100I HIV-1 RT): 170
EC50 ([2]; Fig 10): > 57000 nM
ID50: WT ([3]; Fig 10): 33 nM
CC50 (mock-infected cells; Fig 10): > 57000 nM
EC50 ([4]; Fig 10): 4140 nM
Fold-resistance K103N (EC50) [4]: 828

COc1ccc(CCCSc2nc(O)c(C)c(Cc3c(Cl)cccc3Cl)n2)cc1 [compound 78]
EC50 (HIV-1 NL4-3 wt; Fig 9): 0.44 nM
EC50 [1]: 110 nM
ID50: Y181I (Y181I HIV-1 RT; Fig 9): 300 nM
EC50 ([2]; Fig 9): > 1000 nM
ID50: WT ([3]; Fig 9): 37 nM
CC50 (mock-infected cells; Fig 9): 1000 nM
EC50 ([4]; Fig 9): > 1000 nM

CCc1c(Cc2c(Cl)cccc2Cl)nc(SCC(=O)c2ccccc2)[nH]c1=O [compound 101]
EC50 (HIV-1 NL4-3 wt; Fig 10): 7 nM
SI (HIV-1): > 7429
EC50 ([7]; Fig 10): 46 nM
Fold-resistance Y181C (EC50) [7]: 7
ID50: Y181I (Y181I HIV-1 RT; Fig 10): 330 nM
Fold-resistance Y181I RT (ID50) (Y181I HIV-1 RT): 5
ID50: L100I (L100I HIV-1 RT): 3540 nM
Fold-resistance L100I RT (ID50) (L100I HIV-1 RT): 50
EC50 ([2]; Fig 10): 5000 nM
Fold-resistance Y188L (EC50) ([2]; Fig 10, in brackets): 714
ID50: WT ([3]; Fig 10): 71 nM
CC50 (mock-infected cells; Fig 10): > 52000 nM
EC50 ([4]; Fig 10): 1200 nM
Fold-resistance K103N (EC50) [4]: 171

CCc1c(CC2CCCCC2)nc(SCc2cc(-c3ccc(O)cc3)[nH]n2)[nH]c1=O [compound 180]
pharmacokinetic properties and bioavailability (in words) [9]: acceptable

COc1cc(-c2nc(SCC(=O)c3ccc(Cl)cc3)[nH]c(=O)c2C#N)ccc1OCc1ccccc1 [compound 197]
LC50: MCF7 (breast cancer MCF7 cells): 1.9 µg/mL (≈ 3.67 µM)
LC50: HePG2 (HePG2 cells): 20.9 µg/mL (≈ 40.3 µM)
LC50: HT29 [10]: 10.1 µg/mL (≈ 19.5 µM)

COc1ccc(CSc2nc(O)c(C)c(Cc3c(F)cccc3F)n2)cc1 [compound 79]
EC50 (HIV-1 NL4-3 wt; Fig 9): 26 nM
EC50 [1]: 690 nM
EC50 ([2]; Fig 9): 10000 nM
ID50: WT ([3]; Fig 9): 7 nM
CC50 (mock-infected cells; Fig 9): > 64000 nM
EC50 ([4]; Fig 9): 690 nM

Cc1cc(C)cc(Cc2nc(Sc3cccc4ccccc34)[nH]c(=O)c2C)c1 [compound 86]
EC50 (A17 (Y181C+K103N)): > 100000 nM
EC50 [5]: 80000 nM
CC50 (mock-infected cells; Fig 9): > 100000 nM
EC50 (N119 (Y181C mutant)): 5000 nM

CCc1c(Cc2c(F)cccc2Cl)nc(SCC(=O)Nc2ccccc2)[nH]c1=O [A compound similar to 105–108]
EC50 (HIV-1; read-out: EC50 against wild-type): 190 nM
EC50 [7]: 2130 nM
EC50 [11]: 2030 nM

CCc1c(Cc2cc(C)cc(C)c2)nc2n(c1=O)COCCS2 [compound 26]
CD50 (mock-infected cells): > 100 µM
ED50: HIV-1 IIIB (HIV-1IIIB): 1600 nM
ED50: HIV-1 119 (N119 (Y181C mutant)): 6300 nM
Fold-resistance HIV-1 119 (ED50) (N119 (Y181C mutant)): 4

CCc1c(CC2CCCCC2)nc(SCc2cc(-c3ccc(SC)cc3)[nH]n2)[nH]c1=O [compound 181]
pharmacokinetic properties and bioavailability (in words) [9]: acceptable

N#Cc1c(-c2c(Cl)cccc2Cl)nc(SCC(=O)c2ccc(Br)cc2)[nH]c1=O [compound 199]
inhibitory effect toward HOP-92 [12]: > 50%

Cc1c(O)nc(Sc2ccccc2)nc1Cc1c(F)cccc1F [compound 80]
EC50 (HIV-1 NL4-3 wt; Fig 9): 90 nM
EC50 [1]: 16700 nM
ID50: Y181I (Y181I HIV-1 RT; Fig 9): > 400000 nM
EC50 ([2]; Fig 9): > 72700 nM
ID50: WT ([3]; Fig 9): 32000 nM
CC50 (mock-infected cells; Fig 9): > 72700 nM
EC50 ([4]; Fig 9): 42500 nM

CCc1c(CC2CCCCC2)nc(SCC(=O)Nc2cc(F)cc(F)c2)[nH]c1=O [compound 211]
ZIKV EC50 (Vero cells) (ZIKV): inactive
